According to article PMC11078216, “Discovery of potent and selective activity-based probes (ABPs) for the deubiquitinating enzyme USP30” (RSC Chemical Biology, 2024):

Target: T1, USP30 (Homo sapiens, UniProt Q70CQ3)
T1 construct: Catalog #E-582 residues 57-517; purchased E-582
T1 sequence (Q70CQ3 57-517): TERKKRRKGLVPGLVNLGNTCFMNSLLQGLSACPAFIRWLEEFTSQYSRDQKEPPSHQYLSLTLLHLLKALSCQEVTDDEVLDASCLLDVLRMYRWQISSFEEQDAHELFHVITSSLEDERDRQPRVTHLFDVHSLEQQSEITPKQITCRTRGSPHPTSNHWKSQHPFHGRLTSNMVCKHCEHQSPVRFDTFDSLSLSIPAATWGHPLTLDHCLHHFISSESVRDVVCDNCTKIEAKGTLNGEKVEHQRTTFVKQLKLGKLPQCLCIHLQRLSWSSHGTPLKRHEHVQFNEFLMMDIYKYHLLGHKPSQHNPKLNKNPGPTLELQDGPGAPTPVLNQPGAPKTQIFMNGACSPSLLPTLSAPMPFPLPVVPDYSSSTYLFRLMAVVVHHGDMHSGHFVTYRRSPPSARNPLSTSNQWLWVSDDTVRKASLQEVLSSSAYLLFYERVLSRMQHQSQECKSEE
Assay: USP30 FP kinetic analysis (kobs/I, Ki, kinact) using Ub-Lys(TAMRA)-Gly
Format: biochemical
Details: for kinact/KI: read-out: kobs/I
Procedure: We further characterised inhibition kinetics for ABPs in a FP assay using Ub-Lys(TAMRA)-Gly. kobs/I, Ki and kinact determination assay was performed using 30 nM USP30 and 100 nM Ub-Lys(TAMRA)-Gly as described in ESI, ^† Section S3.1.c. FP was monitored kinetically over an hour after addition of the substrate, and response curves fitted to y = (vi/kobs) (1 − exp(−kobsx)) to calculate kobs/I, 5680 (95% Cl = 4723–6638) M^−1 s^−1 for IMP-2587, and 3021 (95% Cl = 2350–3693) M^−1 s^−1 for IMP-2586 (Fig. S1, ESI ^†).
4. Biochemical and biological methods and proteomics
1) Biochemical USP30 fluorescence polarisation (FP) assay using Ub-Lys(TAMRA)-Gly […]
USP30 was diluted in reaction buffer A (40 mM Tris, pH 7.5, 0.005% Tween 20, 0.5 mg/ml BSA, 5 mM betamercaptoethanol) and 10 μL of diluted 10.5 nM […]
b. USP30 biochemical kinetic assay
Reactions were performed in triplicate in black 384 well plates (small volume, Greiner 784076) in a final reaction volume of 20 ul. […]
Pherastar Plus (BMG Labtech). l Excitation 540 nm; l Emission 590 nm.
Inhibition kinetics for compound ABP 2 and ABP 4 were determined by preparing compound dilution plates at 21× final concentration in 50% DMSO in water. 50% DMSO (1 μL) or diluted compound (1 μL) was added to the reaction plate. Substrate Ub-TAMRA (200 nM, 10 μL) (final concentration: 100 nM) was prepared in buffer A described in section 3.1.a and added to the reaction plate. Reactions were initiated by the addition of USP30 (21 nM, 10 μL) (final concentration 10 nM), and fluorescence polarisation read immediately for 1 h in every 2 min. Analysis was performed in GraphPad Prism.
Kinetic progress curves were fitted to equation y = (vi/kobs) (1 − exp(−kobs*x)) to determine the kobs value (for first 30 min data). The kobs value was then plotted against the inhibitor concentration to […]

[1] = 30 nM USP30, 100 nM Ub-Lys(TAMRA)-Gly, nonlinear regression to kobs = kinact/(1 + (Ki/x))

Row | SMILES | Ki [1] [nM] | kinact/KI [M⁻¹ s⁻¹] | KI (inactivation) [1] [nM]
1 | N#CN1CC[C@@H](NC(=O)c2cc(-c3ccccc3Oc3ccc(N=[N+]=[N-])cc3)n[nH]2)C1 [IMP-2586] | 5.6 | 3020 | 
2 | C#Cc1cccc(-c2cc(NC(=O)CC3CCN(C#N)C3)on2)c1 (centres unmarked) [IMP-2587] | 42.8 | 5680 | 42.7
